Measurements from PubChem BioAssay AID588756 (Broad Institute, 2011).
Activity calls are given as the source filed them.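 How the source made its calls: active means a falling-signal curve whose fitted AC50 is at most ten times the top valid dose; inconclusive means flat fit with 30 to 70% inhibition, or a poor fit; inactive means the rest.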

Biological target: Aurora kinase B (Homo sapiens) (UniProt Q96GD4)
Test: Aurora B kinase inhibition counter-screen, dose response, counter-screen for STK33 inhibitor project, biochemical, scintillation, dry powder, set 2 (AID 588756)
Conditions: gamma-32P-ATP (ATP at Km), P30 filter scintillation

Chain of Aurora kinase B (Homo sapiens) (Q96GD4 whole entry, looked up): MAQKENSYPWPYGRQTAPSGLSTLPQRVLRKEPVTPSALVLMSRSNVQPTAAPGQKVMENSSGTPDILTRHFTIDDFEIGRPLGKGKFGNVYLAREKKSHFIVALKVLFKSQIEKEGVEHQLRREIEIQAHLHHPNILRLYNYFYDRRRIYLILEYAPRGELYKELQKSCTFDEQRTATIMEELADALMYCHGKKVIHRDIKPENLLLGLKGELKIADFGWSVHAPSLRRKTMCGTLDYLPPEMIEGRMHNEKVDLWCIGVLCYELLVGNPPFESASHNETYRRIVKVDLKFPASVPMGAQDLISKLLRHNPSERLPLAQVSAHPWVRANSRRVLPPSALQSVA

Row | SMILES | AC50 | activity change, negative = inhibition (at 10 µM (top of the series))
1 | COc1cc(/C=C2\SC(=Nc3ccccc3Cl)NC2=O)ccc1O | 10.1 µM | 
2 | COc1cc(/C=C2\SC(=NCc3ccccc3)NC2=O)ccc1O | 2.92 µM | 
3 | COc1cc(/C=C2\S/C(=N/c3ccccn3)NC2=O)ccc1O |  | inactive
4 | COc1cc(/C=C2\SC(=Nc3ccccc3F)NC2=O)ccc1O | > 20 µM (inactive) | 
5 | COc1cc(/C=C2\SC(N)=NC2=O)ccc1O | > 20 µM (inactive) | 
